Laboratory results from patent publication US20170165293A1, “METHOD AND APPARATUS FOR SCAVENGING PLASMA FREE HEMOGLOBIN” (GENO LLC, priority 2015, published 2017).
Read-outs that look alike come from different tables or passages of the source.

Columns and labels:
LPS-induced lung injury = format: in vivo, mice
[1] = system: polymicrobial sepsis-induced lung injury; details: in vivo
[2] = system: brain ischemia-reperfusion injury; details: acute rat model, focal ischemia-reperfusion, inhaled; cited from earlier work
chrondrocytes = details: cited from earlier work
cell-free Hb = cell-free Hb (Homo sapiens, UniProt P68871+P69905); details: cited from earlier work
NO = details: cited from earlier work; for NO consumption ability of plasma compared to controls with infused albumin and saline: samples collected after infusion, both p<0.0001
[3] = several time points; cited from earlier work
canines = details: cited from earlier work; for mean SVRI compared to controls (albumin and saline) / mean MAP compared to controls (albumin and saline): 1-3 hr, after 1-hour infusion; for mean SVRI compared to controls (albumin and saline): oxyHb p<0.0001, metHb p=0.04; for mean MAP compared to controls (albumin and saline): oxyHb p<0.0001, metHb p=0.05
[4] = system: free water-induced intravascular hemolysis; details: in vivo; cited from earlier work
HIF = details: cited from earlier work

Sequence of cell-free Hb (P69905 2-142 limits assumed): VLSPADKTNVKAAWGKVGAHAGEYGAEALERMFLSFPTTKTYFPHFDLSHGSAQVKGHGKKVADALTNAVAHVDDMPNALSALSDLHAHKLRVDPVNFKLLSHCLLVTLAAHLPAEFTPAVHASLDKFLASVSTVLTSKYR
Sequence of cell-free Hb (P68871 2-147 limits assumed): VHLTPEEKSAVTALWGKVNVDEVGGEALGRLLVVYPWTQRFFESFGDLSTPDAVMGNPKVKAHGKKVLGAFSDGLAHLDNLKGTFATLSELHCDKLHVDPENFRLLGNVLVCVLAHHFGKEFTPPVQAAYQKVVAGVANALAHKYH

[HH] [H2, hydrogen]
LPS-induced pulmonary early and late NF-κB activation (LPS-induced lung injury; H2 and/or NO treatment): inhibited | cell apoptosis (LPS-induced lung injury; H2 and/or NO treatment): down-regulated | pulmonary inflammation (LPS-induced lung injury; H2 and/or NO treatment): down-regulated | lung injury (LPS-induced lung injury; intratracheal LPS, 2% H2 and/or 20 ppm NO for 3 hours starting at 5 minutes or 3 hours after LPS): significantly improved | lung injury in polymicrobial sepsis [1]: significantly attenuated | brain injury [2]: markedly suppressed | generation of hydroxyl radicals and peroxynitrite (chrondrocytes): selectively reduce

cell-free Hb: cell-free hemoglobin infused with or without inhaled NO
species of the cell-free Hb (cell-free Hb; animals breathing air (n=2)): remained predominantly oxyhemoglobin | SVRI (cell-free Hb; infusion of cell-free Hb): increases | pulmonary vascular resistance index (cell-free Hb; infusion of cell-free Hb): increases

metHb: cell-free ferric methemoglobin (Fe3+) infused into animals
NO consumption by plasma relative to the infused oxyHb-containing plasma (NO; p=0.009): 10 fold lower | NO consumption ability of plasma compared to controls with infused albumin and saline (NO): Elevated | mean plasma nitrite levels compared to controls [3]: similar | mean SVRI compared to controls (albumin and saline) (canines): elevations | mean MAP compared to controls (albumin and saline) (canines): elevations | vascular pressures (canines; cell-free metHb infusions, after being reduced to oxyHb): increase | clearance / stability in plasma compared with cell-free oxyHb (canines; in vivo): cleared faster and/or is less stable | increase in MAP compared to the oxyHb infusions (canines; similar concentrations of Hb solutions over 1 hour, p=0.006): significantly less of an increase | increase in SVRI compared to the oxyHb infusions (canines; similar concentrations of Hb solutions over 1 hour, p=0.04): significantly less of an increase | correlation of metHb levels converted from infused oxyHb with changes in MAP (canines; throughout the experiment): not correlated

nitric oxide [inhaled NO]
LPS-induced pulmonary early and late NF-κB activation (LPS-induced lung injury; mouse, in vivo): inhibited | cell apoptosis (LPS-induced lung injury; mouse, in vivo): down-regulated | lung injury (LPS-induced lung injury; mouse, in vivo): significantly improved | pulmonary inflammation (LPS-induced lung injury; mouse, in vivo): down-regulated | lung injury in polymicrobial sepsis [1]: significantly attenuated | MAP [4]: no net effect | SVRI [4]: no net effect | effect of sodium nitroprusside on CI during hemolysis [4]: restored | effect of sodium nitroprusside on SVRI during hemolysis [4]: restored | hypertensive effects associated with intravascular free water induced hemolysis and release of cell-free oxyHb [4]: completely eliminates | impairment in the ability of the kidneys to compensate for hyponatremia (serum sodium levels) [4]: attenuated | increase in MAP caused by free water-induced intravascular hemolysis [4]: attenuated | increase in SVRI caused by free water-induced intravascular hemolysis [4]: attenuated | six-hour creatinine clearance [4]: intermediate clearance | systemic blood pressure [4]: miniscule or no measurable effects | total plasma Hb composition [4]: predominantly methemoglobin | vasoconstriction [4]: prevent vasoconstriction | increase in SVRI on infusion of cell-free Hb (cell-free Hb; animals breathing NO (n=2)): attenuated | increase in pulmonary vascular resistance index on infusion of cell-free Hb (cell-free Hb; animals breathing NO (n=2)): attenuated | species of the cell-free Hb (cell-free Hb; animals breathing NO (n=2)): converted to methemoglobin | effect on HIF (HIF; high doses and after 30 minutes): inhibitory | effect on HIF (HIF; low dose, for 30 minutes, during hypoxia): stimulates

oxyHb: cell-free oxyhemoglobin (Fe2+-O2) infused into animals
increase in NO consumption ability of plasma, ranking (NO; among infused groups): highest | NO consumption ability of plasma compared to controls with infused albumin and saline (NO): Elevated | mean plasma nitrite levels compared to controls [3]: similar | mean SVRI compared to controls (albumin and saline) (canines): significant elevations | mean MAP compared to controls (albumin and saline) (canines): significant elevations | MAP (canines; 2 hours after the oxyHb infusion ended, same rate as during the infusion): continued to steadily increase | increase in MAP (canines; oxyHb infusion, from 0 to 3 hr, p<0.0001): 27%
